What was measured:
Format in all cases: in vivo
[1] = tested on: cotton aphid (Aphis gossypii); experiment: Test Example 1: pesticidal effect against cotton aphid by spray treatment (cucumber leaf disk, control value); conditions: composition of the compound and clothianidin; spray over cucumber leaf disk, 25° C., 5 days; summary of Table 43
Description: A commercially available clothianidin water-soluble agent, manufactured by Sumitomo Chemical Co., Ltd. under the product name of Dantotsu (registered trademark) water-soluble agent, as the neonicotinoide compound was diluted with water. […] In a well of 24-well plate containing agar, a cucumber leaf disk was put on the agar and about 15 cotton aphids (Aphis gossypii) were released on the leaf disk. The test chemical solution (20 μl/well) was sprayed over the leaf disk, followed by storage in a constant-temperature breeding room at 25° C. for 5 days, and then the number of surviving aphids was checked. A control value (%) was calculated by the following equation. […] wherein symbols represents the following meanings. Cb: Number of bugs in non-treated group before treatment Cai: Number of bugs in a non-treated group on observation Tb: Number of bugs in treated group before treatment Tai: Number of bugs in treated group on observation

[2] = tested on: brown planthopper (Nilaparvata lugens); experiment: Test Example 2: pesticidal effect against brown planthopper by foliage spray treatment of rice (control value); conditions: foliage spray of rice seedlings, third-instar larvae, after 5 days
[3] = tested on: cotton aphid (Aphis gossypii); experiment: Test Example 3: pesticidal effect against cotton aphid by spray treatment (cucumber leaf disk, control value); conditions: composition of the compound and clothianidin; spray over cucumber leaf disk, 25° C., 5 days; summary of Table 49
[4] = tested on: brown planthopper (Nilaparvata lugens); experiment: Test Example 4: pesticidal effect against brown planthopper by foliage spray treatment of rice (control value); conditions: foliage spray of rice seedlings, third-instar larvae, after 5 days
[5] = composition of the compound and clothianidin, summary of Table 44
[6] = composition of the compound and dinotefuran, summary of Table 48
[7] = composition of the compound and imidacloprid, summary of Table 47
[8] = composition of the compound and nitenpyram, summary of Table 45
[9] = composition of the compound and thiamethoxam, summary of Table 46

Structure (SMILES)	pesticidal efficacy against cotton aphid (Aphis gossypii) [1]	pesticidal efficacy against brown planthopper (Nilaparvata lugens) [2, 5]	pesticidal efficacy against brown planthopper (Nilaparvata lugens) [2, 6]	pesticidal efficacy against brown planthopper (Nilaparvata lugens) [2, 7]	pesticidal efficacy against brown planthopper (Nilaparvata lugens) [2, 8]	pesticidal efficacy against brown planthopper (Nilaparvata lugens) [2, 9]	other results
FC(F)(F)c1ccc2oc(-c3ccncc3)nc2c1 [Compound 13, 2-(pyridin-4-yl)-5-(trifluoromethyl)benzoxazole]	high pesticidal efficacy	–	–	–	–	–	–
FC(F)(F)c1ccc2oc(-c3ccncc3Cl)nc2c1 [Compound 18, 2-(3-chloropyridin-4-yl)-5-(trifluoromethyl)benzoxazole]	high pesticidal efficacy	high pesticidal efficacy	high pesticidal efficacy	high pesticidal efficacy	high pesticidal efficacy	high pesticidal efficacy	–
Cc1c[n+]([O-])ccc1-c1nc2cc(C(F)(F)F)ccc2o1 [Compound 24, 3-methyl-4-[5-(trifluoromethyl)benzoxazole-2-yl]pyridine N-oxide]	high pesticidal efficacy	–	–	–	–	–	–
CCc1cnccc1-c1nc2cc(C(F)(F)F)ccc2o1 [Compound 35, 2-(3-ethylpyridin-4-yl)-5-(trifluoromethyl)benzoxazole]	high pesticidal efficacy	–	–	–	–	–	–
FC(F)(F)COc1cnccc1-c1nc2cc(C(F)(F)F)ccc2o1 [Compound 39, 2-[3-(2,2,2-trifluoroethyl)oxypyridin-4-yl]-5-(trifluoromethyl)benzoxazole]	–	–	–	–	–	–	pesticidal efficacy against cotton aphid (Aphis gossypii) [3]: high pesticidal efficacy; pesticidal efficacy against brown planthopper (Nilaparvata lugens) ([4]; composition of the compound and clothianidin, summary of Table 50): high pesticidal efficacy; pesticidal efficacy against brown planthopper (Nilaparvata lugens) ([4]; composition of the compound and dinotefuran, summary of Table 54): high pesticidal efficacy; pesticidal efficacy against brown planthopper (Nilaparvata lugens) ([4]; composition of the compound and imidacloprid, summary of Table 53): high pesticidal efficacy; pesticidal efficacy against brown planthopper (Nilaparvata lugens) ([4]; composition of the compound and nitenpyram, summary of Table 51): high pesticidal efficacy; pesticidal efficacy against brown planthopper (Nilaparvata lugens) ([4]; composition of the compound and thiamethoxam, summary of Table 52): high pesticidal efficacy
CSc1cnccc1-c1nc2cc(C(F)(F)F)ccc2o1 [Compound 40, 2-[3-(methylthio)pyridin-4-yl]-5-(trifluoromethyl)benzoxazole]	high pesticidal efficacy	–	–	–	–	–	–
FC(F)(F)C(F)(F)c1ccc2oc(-c3ccncc3)nc2c1 [Compound 65, 5-(pentafluoroethyl)-2-(pyridin-4-yl)-benzoxazole]	high pesticidal efficacy	–	–	–	–	–	–
CC(C)Oc1cnccc1-c1nc2cc(C(F)(F)F)ccc2o1 [Compound 70, 2-(3-isopropoxypyridin-4-yl)-5-(trifluoromethyl)benzoxazole]	high pesticidal efficacy	high pesticidal efficacy	high pesticidal efficacy	high pesticidal efficacy	high pesticidal efficacy	high pesticidal efficacy	–
FC(F)(F)Sc1ccc2oc(-c3ccncc3Cl)nc2c1 [Compound 77, 2-(3-chloropyridin-4-yl)-5-(trifluoromethylthio)benzoxazole]	high pesticidal efficacy	high pesticidal efficacy	high pesticidal efficacy	high pesticidal efficacy	high pesticidal efficacy	high pesticidal efficacy	–
COc1cnccc1-c1nc2cc3c(cc2o1)C(F)(F)OC3(F)F [Compound 88, 5,5,7,7-tetrafluoro-2-(3-methoxypyridin-4-yl)-5,7-dihydro-furo[3′,4′:4,5]benzo[1,2-d]oxazole]	high pesticidal efficacy	–	–	–	–	–	–
CCc1cnccc1-c1nc2cc(OC(F)(F)F)ccc2o1 [Compound 109, 2-(3-ethylpyridin-4-yl)-5-(trifluoromethoxy)benzoxazole]	–	high pesticidal efficacy	high pesticidal efficacy	high pesticidal efficacy	high pesticidal efficacy	high pesticidal efficacy	–
FC(F)COc1cnccc1-c1nc2cc(C(F)(F)F)ccc2o1 [Compound 110, 2-[3-(2,2-difluoroethoxy)pyridin-4-yl]-5-(trifluoromethyl)benzoxazole]	high pesticidal efficacy	–	–	–	–	–	–
FC(F)(F)c1ccc2oc(-c3ccncc3-c3cccnc3)nc2c1 [Compound 128, 4-(5-trifluoromethyl-benzoxazole-2-yl)-[3,3′]bipyridinyl]	high pesticidal efficacy	high pesticidal efficacy	high pesticidal efficacy	high pesticidal efficacy	high pesticidal efficacy	high pesticidal efficacy	–
CC(C)N(C)c1cnccc1-c1nc2cc(C(F)(F)F)ccc2o1 [Compound 132, isopropyl-methyl-{4-[5-(trifluoromethyl)benzoxazole-2-yl]pyridin-3-yl}amine]	high pesticidal efficacy	–	–	–	–	–	–
CCS(=O)(=O)c1cnccc1-c1nc2cc(C(F)(F)F)ccc2o1 [Compound 133, 2-[3-(ethanesulfonyl)pyridin-4-yl]-5-(trifluoromethyl)benzoxazole]	high pesticidal efficacy	–	–	–	–	–	–
FC(F)(F)c1cnc2oc(-c3ccncc3)nc2c1 [Compound 138, 2-pyridin-4-yl-6-(trifluoromethyl)oxazolo[5,4-b]pyridine]	high pesticidal efficacy	–	–	–	–	–	–
FC(F)(F)c1cnc2oc(-c3ccncc3Cl)nc2c1 [Compound 139, 2-(3-chloropyridin-4-yl)-6-(trifluoromethyl)oxazolo[5,4-b]pyridine]	–	high pesticidal efficacy	high pesticidal efficacy	high pesticidal efficacy	high pesticidal efficacy	high pesticidal efficacy	–
[O-][n+]1ccc(-c2nc3cc(C(F)(F)F)cnc3o2)c(Cl)c1 [Compound 140, 2-(3-chloro-1-oxypyridin-4-yl)-6-(trifluoromethyl)oxazolo[5,4-b]pyridine]	high pesticidal efficacy	–	–	–	–	–	–
CCc1cnccc1-c1nc2cc(C(F)(F)F)cnc2o1 [Compound 143, 2-(3-ethylpyridin-4-yl)-6-(trifluoromethyl)oxazolo[5,4-b]pyridine]	high pesticidal efficacy	high pesticidal efficacy	high pesticidal efficacy	high pesticidal efficacy	high pesticidal efficacy	high pesticidal efficacy	–
FC(F)(F)c1cnc2oc(-c3ccncc3C(F)(F)F)nc2c1 [Compound 144, 6-trifluoromethyl-2-[3-(trifluoromethyl)pyridin-4-yl]-oxazolo[5,4-b]pyridine]	high pesticidal efficacy	–	–	–	–	–	–
CSc1cnccc1-c1nc2cc(C(F)(F)F)cnc2o1 [Compound 146, 2-(3-methylthiopyridin-4-yl)-6-(trifluoromethyl)oxazolo[5,4-b]pyridine]	high pesticidal efficacy	high pesticidal efficacy	high pesticidal efficacy	high pesticidal efficacy	high pesticidal efficacy	high pesticidal efficacy	–
CCS(=O)(=O)c1cnccc1-c1nc2cc(C(F)(F)F)cnc2o1 [Compound 150, 2-[3-(ethanesulfonyl)pyridin-4-yl]-6-(trifluoromethyl)oxazolo[5,4-b]pyridine]	high pesticidal efficacy	–	–	–	–	–	–

From patent publication US20120245159A1, “COMPOSITION AND METHOD FOR CONTROLLING ARTHROPOD PESTS” (SUMITOMO CHEMICAL COMPANY, LIMITED, priority 2009, published 2012)
